Earlier results as cited in patent publication US11278572B2, “Reducing CXCR4 expression and/or function to enhance engraftment of hematopoietic stem cells” (THE UNITED STATES OF AMERICA, as represented by the …, priority 2014, dated 2022).

Columns and labels:
HPV = settings: WHIM patients
CXCR4 = settings: WHIM patients, small studies

SMILES | effect on cutaneous and anogenital HPV disease (HPV) | effect on panleukopenia and WHIM syndrome (CXCR4)
CC(C)Cn1cnc2c(N)nc3ccccc3c21 [imiquimod] | ineffective | –
c1cc(CN2CCCNCCNCCCNCC2)ccc1CN1CCCNCCNCCCNCC1 [Plerixafor, plerixafor] | – | successful at reversing the panleukopenia and treating WHIM syndrome
